Source: patent US20100168228A1, “NOVEL CHEMOTHERAPEUTIC AGENTS AGAINST INFLAMMATION AND CANCER” (RELIANCE LIFE SCIENCES PVT. LTD., priority 2006, published 2010)

What was measured:
Type in all cases: cell-based, human
[1] = test system: caspase 3; experiment: Caspase 3 activity assay, Jurkat lysates; conditions: 16 and 24 h exposure
Experimental: FIG. 14: Induction of Caspase 3 by compound 27. Jurkat cells were treated with indicated concentrations of the compound for 16 and 24 h and harvested in lysis buffer. Cellular lysates were incubated with Ac-DEVD-pNA as described in the “Materials and Methods” for 2 h at 37° C. Absorbance was recorded at 405 nm.
Caspase 3 activity assay: To evaluate caspase 3 activity, cell lysates were prepared after their respective treatments with the compounds. 200 μg of the cell lysates were incubated with 50 μM caspase 3 substrate […] in 100 μl reaction buffer (1% NP-40, […] tris-HCl, pH7.5, 137 mM NaCl, and 10% glycerol) and incubated for 2 h at 37° C. The release of chromophore pNA was monitored spectrophotometrically at 405 nm.

[2] = test system: MCF-7; experiment: Apoptosis by PARP cleavage (FACS), MCF-7; conditions: MCF-7, 100 nM, 24 h
Experimental: FIG. 19: Effect of compound 27 on the apoptosis in cells with different p53 status. Extent of apoptosis in different cells was measured by staining the cells for PARP cleavage followed by FACS analysis. Cells were treated with 100 nM of the compound for 24 h and the level of apoptosis was seen. Percentage apoptotic populations are represented as the M2 gated population.
PARP Cleavage Assay using Flow Cytometry: Extent of PARP cleavage is determined using polyclonal antibody specifically recognizing the 85 kDa fragment of cleaved PARP (NSB 699 Novus Biologicals) and can be used as a marker for detecting apoptotic cells. Treated cells were fixed with 70% chilled ethanol and permeabilized for 30 min at RT (PBS+0.5% BSA+0.02% NaN3+0.5% saponin) and stained with anti PARP-FITC (10 μl/10^6 cells) for one hour at RT. Cells were washed twice with wash buffer (PBS+1% heat inactivated FBS) and analysed using FACS.

[3] = test system: Jurkat cells; experiment: Measurement of reactive oxygen intermediates (ROI) by flow cytometry; conditions: pretreated 1 h, TNF 1 nM 4 h
Experimental: The production of ROI in cells treated with TNFα or LPS was determined by flow cytometer as described by (Manna, S. K. et. al., J. Immunol. (1999) 162(3):1510-1518). Briefly Jurkat cells (5×10^5 cells in one ml) were incubated either with RPMI 1640 medium supplemented with 10% FBS or with complete media containing different concentrations of CAMVE for 1 h at 37° C. Cells were then stimulated with 1 nM of TNF for 4 h. After incubation, the cells were washed with D-PBS, and resuspended in 1 ml D-PBS. To detect ROI production, cells were exposed to Dihydrorhodamine 123 (5 mM stock) at a final concentration of 1 μM for 1 hr at 37° C. with moderate shaking (100 rpm) and then washed with D-PBS three times and resuspended in 1 ml of D-PBS. Rhodamine 123 fluorescence intensity resulting from Dihydrorhodamine 123 oxidation was measured by FACS Calibur (Becton Dickinson) with excitation at 488 nm and was detected between […]. Data was analyzed using Cell Quest software (Becton Dickinson).

[4] = test system: p65; experiment: Nuclear translocation of p65 by flow cytometry, Jurkat
Experimental: FIG. 5: Effect of CAMVE on TNF or LPS induced nuclear translocation of p65. A. HeLa cells either untreated or pretreated with 15 μM CAMVE for 3 h at 37° C. were stimulated with 0.1 nM TNF and immunocytochemical analysis were performed as described in “Materials and Methods”. B. Jurkat (5×10^5 cells/ml) cells were pretreated with indicated concentrations of CAMVE for 3 h and then stimulated with 0.1 nM of TNF for 30 min or 100 ng/ml of SA-LPS (serum activated LPS) for 15 min. After these treatments, cells were washed twice with PBS and nuclei were isolated by incubating the cells with […] Pipes-Triton buffer for 30 min at 4° C. Nuclei were stained for p65 and analyzed using FACS. (i). Representative histogram overlay showing TNF or LPS stimulated (1), basal (2), CAMVE stimulated (3), p65 staining in the nucleus. (ii). Ordinates gives the Isotype-corrected MFI for various treatments.
The assay was performed as described previously (Blaecke, A., Yves, D., Herbault, N., Jeannin, P., Bonnefoy, J. V., Beck, A., Aubry, J. P. (2002) Cytometry 48, 71-79). Briefly after stimulation, cells were washed twice with PBS. Nucleus was prepared by incubating the cells with 200 ul Pipes-Triton buffer for 30 min at 4° C. […] After washing, the nuclei were incubated with secondary FITC conjugated goat anti-mouse antibody (Sigma) for additional 30 mins at 4° C. and analysed using FACS. […]

Row | SMILES | caspase 3 activity (DVED-pNA cleavage) [1] | level of apoptosis (PARP cleavage) [2] | TNF induced ROI generation [3] | TNF or LPS mediated p65 translocation ([4]; Jurkat nuclei, pretreated 3 h, 0.1 nM TNF or 100 ng/ml SA-LPS) | basal nuclear p65 staining ([4]; Jurkat, CAMVE alone)
1 | COc1cc([C@@H]2Oc3c(OC)cc(/C=C/C(=O)O)cc3[C@H]2C(=O)O)ccc1O [compound 27, 5-[(E)-2-carboxyvinyl]-2β-(4-hydroxy-3-methoxyphenyl)-7-methoxy-2,3-dihydro-1-benzofuran-3α-carboxylic acid] | dose dependent increase in DVED-pNA cleavage | comparable to that of Jurkat cell line | – | – | –
2 | COC(=O)c1ccc(OC(=O)/C=C/c2ccc(O)c(O)c2)c(OC)c1 [compound 1, Methyl 4-{[(2E)-3-(3,4-dihydroxyphenyl)prop-2-enoyl]oxy}-3-methoxybenzoate] | – | – | suppressed on pretreatment of cells with CAMVE in a dose dependent fashion | blocked with CAMVE pretreatments | not altered by incubation with CAMVE alone
